Reference: US20250270170A1, “2,3-DIMETHOXY-5-METHYL-1,4-BENZOQUINONE ALKYL ALCOHOL DERIVATIVE AND USE THEREOF” (BEIJING ANJIANXI BIO-MEDICAL TECHNOLOGY CO., LTD., priority 2021, published 2025)
Marks after values point to notes of the source that are not given here.

Assays:
[1] = test system: human gastric cancer NCI-N87 transplanted tumor; assay: Example 3: tumor growth in NCI-N87 transplanted tumor model in nude mice; assay type: in vivo, BALB/c nude mice
Description: Female BALB/c nude mice (age: 6 to 7 weeks) were purchased from Beijing Vital River Laboratory Animal Technology Co., Ltd. The mice were raised in an SPF animal room at a temperature of 20 to 25° C., a relative humidity of 40% to 70%, and a cycle of 12 hours of light and 12 hours of dark. The animals had free access to water and food. After about 1 week of normal feeding, mice with good physical condition after the veterinary examination were selected for this assay. Before grouping, a marker was used to mark on the base of the animals' tail. After grouping, each animal was marked with an ear cutout.
The solution was prepared before each administration. An appropriate amount of DDP was weighed and put into a glass bottle. Then, an appropriate volume of physiological saline was added to the bottle, and vortexed (may be heated in a water bath to 50 to 60° C.) to completely dissolve the drug.
An appropriate amount of the compound was weighed and added to an appropriate volume of dimethylacetamide (DMA). The mixture was vortexed to prepare a stock solution (8 mg·mL^−1). The stock solution was prepared once a week, divided into packages and then stored in a 2 to 8° C. refrigerator. One tube was taken out before each administration, and an appropriate volume of 30% Solutol and PEG400 was added while vortexing. The mixture was vortexed and mixed well. Then, an appropriate volume of physiological saline was added, and mixed well to give an administration formulation with a concentration of 0.4 mg·mL^−1, in which the volume ratio of DMA: 30% Solutol: PEG 400: physiological saline was 5:20:20:55.
Human gastric cancer cells NCI-N87 were obtained from the Cell Bank of the Type Culture Collection Committee of Chinese Academy of Sciences (cryopreserved in liquid nitrogen in the laboratory).
NCI-N87 cells were routinely cultured in a RPMI-1640 culture medium containing 10% fetal bovine serum under culture conditions of 37° C. and 5% CO2. The cells were digested with 0.25% trypsin, and passaged according to the cell growth conditions with a passaging ratio of 1:3 to 1:5.
The NCI-N87 cells in the logarithmic growth phase were collected, counted and resuspended in a serum-free RPMI-1640 medium, and the cell concentration was adjusted to 5×10^7 cells/mL. The cells were pipetted with a pipette to disperse them evenly, and the cells were put into a 50-mL centrifuge tube, which was placed in an ice box. A 1-mL syringe was used to draw the cell suspension, which was injected subcutaneously into the axilla of the front right limb of a nude mouse. Each animal was inoculated with 100 μL (5×10^6 cells/mouse) to establish an NCI-N87 transplanted tumor model in nude mice. After the inoculation, the animal status and tumor growth were regularly observed, and the tumor diameter was measured using an electronic vernier caliper. The data were input into an Excel spreadsheet to calculate the tumor volume. When the tumor volume reached 100 to 300 mm^3, 72 animals in good health and with similar tumor volumes were selected and divided into 9 groups (n=8) using randomized block method. The day of grouping was regarded as the first day of the assay (D1). After the start of the assay, the tumor diameter was measured twice a week, the tumor volume was calculated, and the animal body weight was also weighed and recorded.
The calculation formula of tumor volume (TV) is as follows: […]
wherein l represents the long diameter of a tumor (mm); and w represents the short diameter of a tumor (mm).
On the last day of the assay (D44), the animals were anesthetized using CO2 inhalation 1 hour after administration (R01) and sacrificed, and tumor tissues were collected, weighed, and photographed.
The calculation formula of tumor growth inhibition rate TGI (%) is: […]

[2] = test system: human gastric cancer NCI-N87 transplanted tumor; assay: Example 7: tumor growth in NCI-N87 transplanted tumor model, alone and combined with DDP; assay type: in vivo, nude mice; conditions: for Mean tumor volume / tumor growth inhibition rate (TGI): R01 16 mg/kg PO QD×32
[3] = Example 9: serum urea nitrogen (BUN) at the end of the assay; assay type: in vivo, nude mice; conditions: mouse, in vivo
Description: On the last day of the assay, CO2 inhalation anesthesia was used on the animals 1 hour after the administration (R01). Blood was collected through the heart, and a part of the whole blood was added with EDTA-K2 for anticoagulation. The plasma was separated by centrifugation at 4° C. and 1500 g for 10 minutes. The plasma was collected, and stored in a −40° C. to −20° C. freezer (if necessary, it can be used for the determination of the plasma drug concentration). No anticoagulant was added to the other part of the whole blood, and the serum was separated by centrifugation after the blood coagulated, which was used for the detection of blood urea nitrogen. After the blood collection, the tumor tissue was collected, weighed and photographed. Then, the tumor was divided into two parts, quickly cryopreserved by liquid nitrogen, and transferred to a −90° C. to −60° C. freezer for storage. Bilateral kidneys were collected and fixed in 10% formalin.

Structure (SMILES): COC1=C(OC)C(=O)C(CCCCCCCCCCOC(=O)Cc2c(C)n(C(=O)c3ccc(Cl)cc3)c3ccc(OC)cc23)=C(C)C1=O [compound of formula (I)]
- Mean tumor volume ([1]; D13, 2 mg/kg i.g. BID×28): 141 ± 9 mm^3
- Mean tumor volume ([1]; D13, 6 mg/kg i.g. BID×28): 140 ± 8 mm^3
- Mean tumor volume ([1]; D13, 18 mg/kg i.g. BID×28): 134 ± 8 mm^3
- Mean tumor volume ([1]; D16, 2 mg/kg i.g. BID×28): 180 ± 17 mm^3
- tumor growth inhibition rate ([1]; D16, 2 mg/kg i.g. BID×28): (52%)
- Mean tumor volume ([1]; D16, 6 mg/kg i.g. BID×28): 183 ± 10 mm^3
- tumor growth inhibition rate ([1]; D16, 6 mg/kg i.g. BID×28): (48%)
- Mean tumor volume ([1]; D16, 18 mg/kg i.g. BID×28): 175 ± 19 mm^3
- tumor growth inhibition rate ([1]; D16, 18 mg/kg i.g. BID×28): (50%)
- Mean tumor volume ([1]; D20, 2 mg/kg i.g. BID×28): 218 ± 17** mm^3
- tumor growth inhibition rate ([1]; D20, 2 mg/kg i.g. BID×28): (53%)
- Mean tumor volume ([1]; D20, 6 mg/kg i.g. BID×28): 220 ± 11** mm^3
- tumor growth inhibition rate ([1]; D20, 6 mg/kg i.g. BID×28): (51%)
- Mean tumor volume ([1]; D20, 18 mg/kg i.g. BID×28): 209 ± 27* mm^3
- tumor growth inhibition rate ([1]; D20, 18 mg/kg i.g. BID×28): (54%)
- Mean tumor volume ([1]; D23, 2 mg/kg i.g. BID×28): 253 ± 24** mm^3
- tumor growth inhibition rate ([1]; D23, 2 mg/kg i.g. BID×28): (53%)
- Mean tumor volume ([1]; D23, 6 mg/kg i.g. BID×28): 255 ± 16** mm^3
- tumor growth inhibition rate ([1]; D23, 6 mg/kg i.g. BID×28): (52%)
- Mean tumor volume ([1]; D23, 18 mg/kg i.g. BID×28): 245 ± 36* mm^3
- tumor growth inhibition rate ([1]; D23, 18 mg/kg i.g. BID×28): (54%)
- Mean tumor volume ([1]; D27, 2 mg/kg i.g. BID×28): 294 ± 30** mm^3
- tumor growth inhibition rate ([1]; D27, 2 mg/kg i.g. BID×28): (60%)
- Mean tumor volume ([1]; D27, 6 mg/kg i.g. BID×28): 302 ± 24** mm^3
- tumor growth inhibition rate ([1]; D27, 6 mg/kg i.g. BID×28): (58%)
- Mean tumor volume ([1]; D27, 18 mg/kg i.g. BID×28): 297 ± 48** mm^3
- tumor growth inhibition rate ([1]; D27, 18 mg/kg i.g. BID×28): (58%)
- Mean tumor volume ([1]; D30, 2 mg/kg i.g. BID×28): 332 ± 32** mm^3
- tumor growth inhibition rate ([1]; D30, 2 mg/kg i.g. BID×28): (65%)
- Mean tumor volume ([1]; D30, 6 mg/kg i.g. BID×28): 348 ± 31** mm^3
- tumor growth inhibition rate ([1]; D30, 6 mg/kg i.g. BID×28): (62%)
- Mean tumor volume ([1]; D30, 18 mg/kg i.g. BID×28): 354 ± 64** mm^3
- tumor growth inhibition rate ([1]; D30, 18 mg/kg i.g. BID×28): (60%)
- Mean tumor volume ([1]; D34, 2 mg/kg i.g. BID×28): 370 ± 41** mm^3
- tumor growth inhibition rate ([1]; D34, 2 mg/kg i.g. BID×28): (70%)
- Mean tumor volume ([1]; D34, 6 mg/kg i.g. BID×28): 412 ± 37** mm^3
- tumor growth inhibition rate ([1]; D34, 6 mg/kg i.g. BID×28): (64%)
- Mean tumor volume ([1]; D34, 18 mg/kg i.g. BID×28): 444 ± 79** mm^3
- tumor growth inhibition rate ([1]; D34, 18 mg/kg i.g. BID×28): (59%)
- Mean tumor volume ([1]; D37, 2 mg/kg i.g. BID×28): 450 ± 46** mm^3
- tumor growth inhibition rate ([1]; D37, 2 mg/kg i.g. BID×28): (68%)
- Mean tumor volume ([1]; D37, 6 mg/kg i.g. BID×28): 508 ± 38** mm^3
- tumor growth inhibition rate ([1]; D37, 6 mg/kg i.g. BID×28): (62%)
- Mean tumor volume ([1]; D37, 18 mg/kg i.g. BID×28): 492 ± 87** mm^3
- tumor growth inhibition rate ([1]; D37, 18 mg/kg i.g. BID×28): (64%)
- Mean tumor volume ([1]; D44, 2 mg/kg i.g. BID×28): 536 ± 52** mm^3
- tumor growth inhibition rate ([1]; D44, 2 mg/kg i.g. BID×28): (68%)
- Mean tumor volume ([1]; D44, 6 mg/kg i.g. BID×28): 595 ± 57** mm^3
- tumor growth inhibition rate ([1]; D44, 6 mg/kg i.g. BID×28): (63%)
- Mean tumor volume ([1]; D44, 18 mg/kg i.g. BID×28): 590 ± 113** mm^3
- tumor growth inhibition rate ([1]; D44, 18 mg/kg i.g. BID×28): (63%)
- anti-tumor effect compared with cisplatin ([1]; NCI-N87 transplanted tumor model, summary of Table 5): better anti-tumor effect
- Mean tumor volume ([2]; D12): 155 ± 4 mm^3
- Mean tumor volume ([2]; D16): 200 ± 6** mm^3
- tumor growth inhibition rate (TGI) ([2]; D16): 29%
- Mean tumor volume ([2]; D19): 263 ± 14** mm^3
- tumor growth inhibition rate (TGI) ([2]; D19): 27%
- Mean tumor volume ([2]; D23): 336 ± 18** mm^3
- tumor growth inhibition rate (TGI) ([2]; D23): 30%
- Mean tumor volume ([2]; D26): 421 ± 26** mm^3
- tumor growth inhibition rate (TGI) ([2]; D26): 33%
- Mean tumor volume ([2]; D30): 509 ± 46** mm^3
- tumor growth inhibition rate (TGI) ([2]; D30): 43%
- Mean tumor volume ([2]; D33): 577 ± 52** mm^3
- tumor growth inhibition rate (TGI) ([2]; D33): 45%
- Mean tumor volume ([2]; D37): 681 ± 63** mm^3
- tumor growth inhibition rate (TGI) ([2]; D37): 46%
- Mean tumor volume ([2]; D40): 758 ± 74** mm^3
- tumor growth inhibition rate (TGI) ([2]; D40): 47%
- Mean tumor volume ([2]; D44): 871 ± 94** mm^3
- tumor growth inhibition rate (TGI) ([2]; D44): 45%
- effect on growth of the NCI-N87 transplanted tumor (summary) ([2]; R01 alone 16 mg/kg QD, combinations: R01 3, 6, 16 mg/kg (QD) with DDP): significant inhibitory effect
- BUN (mmol/L) Mean ± SE ([3]; 18 mg/kg): 22.51 ± 1.24 mmol/L
- BUN (mmol/L) Mean ± SE ([3]; 36 mg/kg): 22.69 ± 1.17 mmol/L
